Consider 47 compounds from the Deep4Chem optical property database.

A short description of this data set: solvent given as SMILES.

Values joined by “and” are separate entries in the source; they are usually repeats but may differ in a detail not shown here. Identical values can stand only once.

As to `CN(c1ccccc1)c1ccc(-c2ccc(-c3ccc(N(C)c4ccccc4)cc3)c3nc(-c4ccccc4)c(-c4ccccc4)nc23)cc1`, the absorption maximum (in ClC(Cl)Cl) is 476 nm.
For the compound `c1ccc2c(c1)OP1(=NP(Oc3ccc4ccc5cccc6ccc3c4c56)(Oc3ccc4ccc5cccc6ccc3c4c56)=NP(Oc3ccc4ccc5cccc6ccc3c4c56)(Oc3ccc4ccc5cccc6ccc3c4c56)=N1)Oc1ccccc1-2`, the absorption maximum (in ClCCl) is given as 343 nm.
`COCCOCCOCCOc1ccc(/C=C/C2=[N+]3C(=C(c4cc(OC)cc(OC)c4)c4c(C)c(I)c(/C=C/c5ccc(OCCOCCOCCOC)cc5)n4[B-]3(F)F)C(C)=C2I)cc1`: the absorption maximum runs as follows: (in C1CCOC1) 664 nm; (in CS(C)=O) 666 nm; (in ClCCl) 664 nm.
On to `CC(C)(C)c1cc2ccc3cc(C(C)(C)C)cc4c3c2c(c1)c(=O)n1c4nc2c3ccccc3c3ccccc3c21`, for which the absorption maximum is given as 354 nm (in C1CCOC1); 365 nm (in CC#N); 365 nm (in CC(C)=O); 367 nm (in CCCCCC); 366 nm (in CCO); 366 nm (in CCOC(C)=O). In addition, the absorption maximum was 362 nm (in CO); 368 nm (in CS(C)=O); 368 nm (in Cc1ccc(C)cc1); 369 nm (in ClC(Cl)(Cl)Cl); 368 nm (in ClC(Cl)Cl); 369 nm (in c1ccccc1).
With `CCCCN(CCCC)c1ccc(/C=C/c2ccc3nc(/C=C/c4nc5ccc(/C=C/c6ccc(N(CCCC)CCCC)cc6)cc5n(CCC)c4=O)c(=O)n(CCC)c3c2)cc1`, the absorption maximum is, setting by setting: (in C1COCCO1) 528 nm; (in ClCCl) 549 nm.
As for `c1ccc(-n2c3c(c4c2-c2ccccc2C42c4ccccc4-c4ccccc42)C2(c4ccccc4-c4ccccc42)c2ccccc2-3)cc1`, the absorption maximum (in C1CCOC1) amounted to 375 nm.
For `CCN(CC)c1ccc2cc(/C=C/C(=C(C#N)C#N)c3ccc(N(c4ccccc4)c4ccccc4)cc3)c(=O)oc2c1`, the absorption maximum turned out to be 516 nm (in CC(C)=O); 507 nm (in CCOC(C)=O); 528 nm (in CN(C)C=O); 536 nm (in CS(C)=O); 493 nm (in Cc1ccccc1); 518 nm (in ClCCl).
`Cc1ccc2c(c1)C1(c3ccccc3-c3ccccc31)c1cc(C)ccc1N2c1ccc2c(c1)Oc1ccccc1P2(=O)c1ccccc1` (stereo not given) came in with an absorption maximum (in Cc1ccccc1) of 311.25 nm.
For `CN(C)c1ccc(-c2nc3cccnc3[nH]2)cc1`, the absorption maximum came out at 351 nm (in C1CCCCC1) and 346 nm (in CC#N).
Consider `CC1(C)c2ccccc2-c2ccc(N3c4ccc(-c5ccc(/C=C6\C(=O)c7ccc(C(=O)O)cc7C6=O)s5)cc4C4CCCC43)cc21` (stereo not given), for which the absorption maximum (in ClC(Cl)Cl) is 608 nm.
As to `CCc1c(C)c2n(c1C)[B-](F)(F)[N+]1=C(c3ccc[nH]3)c3ccccc3C1=C2C`, the absorption maximum is, setting by setting: (in C1CCOC1) 604 nm; (in CC#N) 597 nm; (in CCCCCC) 604 nm; (in CO) 599 nm; (in Cc1ccccc1) 609 nm; (in ClCCl) 605 nm.
Compound `CCCCn1c(-c2ccc(-c3nnc(-c4cccs4)o3)cc2)nc(-c2ccccc2)c1-c1ccccc1` yielded an absorption maximum (in ClCCl) of 340 nm.
`c1ccc(-c2nc(-c3ccc(N4CCCC4)cc3)cc(-c3ccc4ccccc4c3)n2)cc1` had an absorption maximum (in ClC(Cl)Cl) of 430 nm.
On the same count and under the same terms, then `Cc1ccc2c(c1)c(C#N)c(C#N)c1cc(C)ccc12`, with 343 nm.
`COc1ccc(N(c2ccc(OC)cc2)c2ccc(-c3ccc(-c4ccc5nc6ccccc6c(=O)n5c4)cc3)cc2)cc1`: the absorption maximum (in ClCCl) is 367 nm.
On the same count and under the same terms, under `Clc1ccc(N2c3sc4ccccc4c3Sc3sc4ccccc4c32)cc1` stands 310 nm.
`F[B-]1(F)n2c(-c3ccccc3)cc(-c3ccccc3)c2C=C2C(c3ccccc3)=CC(c3ccccc3)=[N+]21` had an absorption maximum (in C1CCOC1) of 571 nm.
For the setting “in O”, `CC[N+]1(CC)CN2C(=N1)C(C(=O)O)=Cc1cc(OC)ccc12` came in with an absorption maximum of 394 nm.
With `CC(C)[Si]1(C(C)C)c2cc(C=C(C#N)C#N)ccc2-c2ccc(N(C)C)cc21`, the absorption maximum is listed as 480 nm (in C1CCCCC1); 475 nm (in CC#N); 478 nm (in CCO); 469 nm (in CCOCC); 488 nm (in CS(C)=O); 489 nm (in ClCCl). Where the note is “in c1ccccc1”, this compound yielded an absorption maximum of 480 nm.
As for `CC1(C)c2ccccc2N(c2c(F)cc(-c3nnc(-c4ccccc4)o3)cc2F)c2ccccc21`, the absorption maximum stood at 376 nm (in Cc1ccccc1) and 370 nm (in O=P(c1ccccc1)(c1ccccc1)c1ccccc1Oc1ccccc1P(=O)(c1ccccc1)c1ccccc1).
For `Cc1ccc(/C=C/c2ccccc2-[n+]2noc([O-])c2-c2ccccc2)cc1`, the absorption maximum by setting is: (in C1CCCCC1) 316 nm; (in CC#N) 313 nm; (in CCO) 315 nm.
As to `CCCCN1C(=O)c2cccc3c(OC)ccc(c23)C1=O`, the absorption maximum (in CC#N) worked out at 376 nm, the absorption maximum (in CS(C)=O) was 484 nm and the absorption maximum (in Cc1ccccc1) came out at 362 nm.
Under “in ClCCl”, `CC1(C)c2ccccc2-c2sc3ccccc3c21` returned an absorption maximum of 330 nm.
In the case of `c1ccc2c(c1)-c1ccccc1C21c2ccccc2-c2cccnc21`, the absorption maximum (in CC1CCCO1) turned out to be 313 nm.
As for `c1ccc(N(c2ccccc2)c2ccc(-c3ccc4c(c3)C3(c5cc(-c6ccc(N(c7ccccc7)c7ccccc7)cc6)ccc5O4)c4ccccc4-c4ccccc43)cc2)cc1`, for the setting “in ClCCl”, the absorption maximum worked out at 345 nm.
As for `O=C(NCc1ccccc1)c1sc(-c2ccc(-c3cc(C4CC4)c(C(=O)NCc4ccccc4)s3)s2)cc1C1CC1`, the absorption maximum (in ClCCl) stood at 393 nm.
On to `O=[N+]([O-])c1ccc(O)cc1`, for which the absorption maximum turned out to be 309 nm (in CO) and 401 nm (in O).
`CN(C)c1ccc2c(C(=O)NCc3ccccc3)cc(C(=O)[O-])nc2c1`: under “in CCO”, the absorption maximum was 403 nm.
Turning to `CCCCCN(c1ccccc1)c1ccc2c(c1)C(CC)(CC)c1cc(/C=C/c3ccc(/C=C(\C#N)C(=O)O)s3)ccc1-2`, the absorption maximum runs as follows: (in C1CCOC1) 456 nm; (in C1COCCO1) 464 nm; (in CC#N) 430 nm; (in CC(C)=O) 464 nm; (in CCOC(C)=O) 460 nm; (in CN(C)C=O) 418 nm. Moreover, the absorption maximum (in CS(C)=O) was 430 nm and the absorption maximum (in ClCCl) is recorded as 470 nm.
As to `CCCCCC(=O)c1ccc2c3c(sc2c1)-c1ccccc1P3(=O)c1ccccc1` (stereo not given), the absorption maximum (in ClCCl) was 359 nm and 375 nm.
With `CCN(CC)c1ccc2cc(-c3csc(N)c3C#N)c(=O)oc2c1`, the absorption maximum (in C1CCOC1) worked out at 403 nm; the absorption maximum (in CO) amounted to 406 nm; the absorption maximum (in CS(C)=O) is 406 nm; the absorption maximum (in Cc1ccccc1) is recorded as 403 nm; the absorption maximum (in ClCCl) came out at 407 nm.
`CN1\C(=C/C=C/C=C/C2=C3C=CC(c4ccccc4)=[N+]3[B-](F)(F)n3c2ccc3-c2ccccc2)C(C)(C)c2ccccc21` yielded an absorption maximum (in CC#N) of 771 nm.
For the compound `F[B-]1(F)n2c(nc3c4ccccc4c4ccccc4c32)-c2cccc[n+]21`, the absorption maximum is recorded as 403 nm (in CC#N); 447 nm (in CCCCCC); 404 nm (in CO); 430 nm (in ClC(Cl)Cl); 421 nm (in ClCCl).
With `C(=C\c1nc2ccccc2s1)/c1ccc(-c2nc3c4cccnc4c4ncccc4c3[nH]2)cc1`, the absorption maximum is 386 nm (in C1CCOC1), 380 nm (in CC#N), 375 nm (in CO) and 384 nm (in ClCCl).
On to `Cc1ccc2sc3cc(CCC(=O)O)ccc3c(=O)c2c1`, for which the absorption maximum is listed as 401 nm (in CC#N) and 402 nm (in CO).
As for `COc1cccc(OC)c1-c1c2ccc(=[N+]3CCCCC3)cc-2oc2cc(N3CCCCC3)ccc12`, the absorption maximum (in ClCCl) is 565 nm.
With `O=c1oc2ccc(Br)cc2cc1-c1cc2cc(Br)ccc2o1`, the absorption maximum is, setting by setting: (in CC#N) 370 nm; (in CCOC(C)=O) 371 nm; (in CS(C)=O) 374 nm; (in Cc1ccccc1) 377 nm; (in O) 331 nm.
`Cc1cc2c3ccccc3[nH]c2c2[nH]c3ccccc3c12`: the absorption maximum (in ClCCl) turned out to be 323 nm.
As for `Fc1c(F)c(-n2c3ccccc3c3ccccc32)c(F)c(F)c1/C=C/c1ccc(C(=C(c2ccccc2)c2ccccc2)c2ccccc2)cc1`, the absorption maximum (in Cc1ccccc1) came out at 367 nm.
`CCCCCCCCCCOc1ccc(C#Cc2ccc(C#Cc3ccc(OCCCCCCCCCC)c(OCCCCCCCCCC)c3)c3nc4c5ccccc5c5ccccc5c4nc23)cc1OCCCCCCCCCC`: the absorption maximum was found to be 461 nm (in C1CCOC1), 461 nm (in Cc1ccccc1) and 461 nm (in ClCCl).
In the case of `CC(C)(C)c1ccc(C2=c3sc(-c4ccc(C(C)(C)C)cc4)cc3=[N+]3C2=Nc2c(-c4ccc(C(C)(C)C)cc4)c4sc(-c5ccc(C(C)(C)C)cc5)cc4n2[B-]3(F)F)cc1`, the absorption maximum (in ClC(Cl)Cl) came to 767 nm.
Consider `COC(=O)c1cc(=O)n(C)c2cc(-c3cccc(OC)c3)sc12`, for which the absorption maximum runs as follows: (in CC#N) 394 nm; (in ClCCl) 394 nm.
Where the note is “in CS(C)=O”, `C[N+]1=C(/C=C/C=C2/N(CCC[N+](C)(C)C)c3ccc(S(=O)(=O)[O-])cc3C2(C)C)C(C)(C)c2ccccc21` had an absorption maximum of 556 nm.
Where the note is “in ClC(Cl)Cl”, `CCCN1c2ccccc2Sc2cc(/C=C\c3cc(=O)oc4cc(C)ccc34)ccc21` had an absorption maximum of 424 nm.
With `CCOC(=O)c1cc(C)n2nc(-c3ccccc3)ccc12`, under “in C1CCCCC1”, the absorption maximum was found to be 390 nm.
On to `F[B-]1(F)n2c(Cl)c(Cl)c(Br)c2C(Oc2ccccc2)=C2C(Br)=C(Cl)C(Cl)=[N+]21`, for which the absorption maximum (in ClCCl) worked out at 532 nm.
As for `CC(C)(C)NC(=O)c1cccc2ccc3c4cc(Cl)ccc4c4ccc(Cl)cc4c3c12`, the absorption maximum (in ClCCl) worked out at 335 nm.
